Assay results published in patent US20190365784A1, “USE OF BRASSINOSTEROID ANALOGS FOR THE TREATMENT OF DERMAL DISORDERS BY SELECTIVELY MODULATING LIVER X RECEPTORS (LXR) AND DERMAL DISEASE TREATMENT BY BRASSINOSTEROID ANALOGS ACTING AS SELECTIVE LIVER X RECEPTOR (LXR) MODULATORS” (CONSEJO NACIONAL DE INVESTIGACIONES CIENTÍFICAS Y TÉCNICAS …, priority 2015, published 2019).

Legend:
LXR-alpha [1] = biological target: T1, LXR-alpha (Homo sapiens, UniProt Q13133); assay: LXR-alpha/RXR LRE-luciferase reporter in transfected HEK293T cells; type: cell-based; details: GW3965 1 uM, 18 h
T1 sequence (Q13133 1-447): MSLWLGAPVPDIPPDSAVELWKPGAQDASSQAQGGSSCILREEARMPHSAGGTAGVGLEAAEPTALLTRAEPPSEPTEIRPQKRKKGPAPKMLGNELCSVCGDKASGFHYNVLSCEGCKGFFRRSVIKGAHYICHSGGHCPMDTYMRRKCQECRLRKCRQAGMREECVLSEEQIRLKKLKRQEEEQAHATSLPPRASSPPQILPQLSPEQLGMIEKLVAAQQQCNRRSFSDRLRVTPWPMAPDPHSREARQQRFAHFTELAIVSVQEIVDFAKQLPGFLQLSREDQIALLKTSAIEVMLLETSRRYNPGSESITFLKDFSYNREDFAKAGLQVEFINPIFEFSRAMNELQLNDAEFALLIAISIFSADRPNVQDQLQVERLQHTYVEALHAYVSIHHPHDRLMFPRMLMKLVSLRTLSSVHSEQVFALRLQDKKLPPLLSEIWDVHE
T1 sequence (P19793 1-462 partner): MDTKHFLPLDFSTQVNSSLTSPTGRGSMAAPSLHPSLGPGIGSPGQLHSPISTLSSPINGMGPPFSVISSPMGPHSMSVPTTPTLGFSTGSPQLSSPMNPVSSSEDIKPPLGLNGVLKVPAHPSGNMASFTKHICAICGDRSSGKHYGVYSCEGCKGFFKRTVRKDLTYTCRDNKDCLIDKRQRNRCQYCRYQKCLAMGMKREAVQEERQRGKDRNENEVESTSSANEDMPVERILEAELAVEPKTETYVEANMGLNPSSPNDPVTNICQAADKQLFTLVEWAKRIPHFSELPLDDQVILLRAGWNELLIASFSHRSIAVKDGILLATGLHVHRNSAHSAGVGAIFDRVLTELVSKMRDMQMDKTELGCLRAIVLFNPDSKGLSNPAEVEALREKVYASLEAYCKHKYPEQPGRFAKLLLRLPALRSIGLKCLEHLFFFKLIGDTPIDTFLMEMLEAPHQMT
Text: Since we had previously shown that the beneficial effects of the compounds of the invention are independent of glucocorticoid receptor (GR) activation, we set forth to investigate if they might exert their actions through activation of liver X receptors (LXR). For this purpose we used cultured cells transiently transfected with LXR-alpha, the retinoid X receptor (RXR) and a LXR response element-luciferase reporter (LRE-LUC). A. Human embryonic kidney cells (HEK293T; 5×10^5 cells/well) were cultured in DMEM medium supplemented with 10% (v/v) fetal bovine serum, 100 ug/ml of streptomycin, 100 IU/ml of penicillin and 2 mM glutamine. For the transient transfections, the cell cultures were added with plasmids carrying LXR-alpha (pLXR-alpha; 0.6 ug), the retinoid X receptor (pRXR; 0.2 ug), a LXR response element-luciferase reporter (pRE-LUC; 0.7 ug) and beta-galactosidase gene (pRSV-LacZ; 0.6 ug) as a transfection control, using Lipofectamine 2000 (Invitrogen). […] Compounds III to VI are […] analogs bearing a fluorine atom at C-6. To assess LXR-alpha activation, at the end of the incubation period luciferase activity was measured by use of a luciferase assay system (Promega). The results of three independent assays, carried out in duplicate for each condition, are reported.

TNF-alpha = TNF-alpha expression in UV-irradiated HaCaT cells (real time PCR); type: cell-based, human; details: 10 uM
Protocol: (§1) HaCaT cells—a human immortalized keratinocyte cell line—were exposed to 15 J/m^2 UVB (254 nm) irradiation. Twenty four hours after irradiation, the cells were harvested and RNA isolated to assess the expression of LXR-alpha, LXR-beta, ABCA1, TNF-alpha, IL-6, and IL-8 genes. HaCaT cells were cultured in DMEM supplemented with 10% (v/v) fetal bovine serum, penicillin (100 U/mL), streptomycin ([…]) and glutamine (2 mM). […] The expressions of ABCA1, TNF-alpha, IL-6, IL-8, LXR-alpha, and LXR-beta were normalized according to glyceraldehyde-3-phosphate dehydrogenase (GAPDH) expression. The results of three independent assays, carried out in duplicate for each condition, are reported.

IL-8 = IL-8 expression in UV-irradiated HaCaT cells (real time PCR); type: cell-based, human; details: 10 uM, 24 h after UV, normalized to GAPDH
Protocol: as §1

ABCA1 [2] = assay: ABCA1 expression in HaCaT cells (real time PCR); type: cell-based, human; details: 10 uM
Protocol: […] Twenty four hours after irradiation, the cells were harvested and RNA isolated to assess the expression of LXR-alpha, LXR-beta, ABCA1, TNF-alpha, IL-6, and IL-8 genes. HaCaT cells were cultured in DMEM supplemented with 10% (v/v) fetal bovine serum, penicillin (100 U/mL), streptomycin ([…]) and glutamine (2 mM). […] The expressions of ABCA1, TNF-alpha, IL-6, IL-8, LXR-alpha, and LXR-beta were normalized according to glyceraldehyde-3-phosphate dehydrogenase (GAPDH) expression. The results of three independent assays, carried out in duplicate for each condition, are reported.

LXR-alpha [3] = assay: LXR-alpha expression in UV-irradiated HaCaT cells (real time PCR); type: cell-based, human; details: 10 uM, 24 h after UV, vs. DMSO (UV, 24 h) and GW3965 (UV, 24 h)
Protocol: as §1

[4] = tested on: fatty acid synthase (FAS); assay: FAS expression in HL-60 cells (real time PCR); type: cell-based, human; details: GW3965 1 uM, 6 h
Protocol: (§2) To investigate the effects of Compounds I and II on the expression of three genes involved in lipid metabolism [fatty acid synthase (FAS); and two ATP-dependent cholesterol and phospholipid transporters, such as ABCA1 and ABCG1], human promyelocytic leukemia cells (HL-60) that endogenously express LXR-alpha and LXR-beta were incubated in the presence of either Comp I or Comp II (10 uM), or GW3965 (1 uM) for 6 h. mRNA levels for FAS, ABCA1 and ABCG1 were determined by real time PCR and results were normalized to GAPDH expression. HL-60 (10^6 cells/well) were cultured in RPMI medium supplemented with 5% (v/v) fetal bovine serum, penicillin (100 IU/mL), streptomycin (100 ug/mL) y cyprofloxacin (0.4 ug/mL). […] To obtain RNA, at the end of the incubation the cells were collected by centrifugation at 1,000 rpm for 2 min, washed with phosphate buffered saline, and lysed in 300 ul TRIZOL (Invitrogen). RNA samples were suspended in […] of RNAse free water, and their concentration determined (NanoDrop spectrophotometer). […] To obtain cDNA, 1 ug of total RNA was denatured by incubating for 5 min at 70° C., before the addition of a mixture containing 0.5 ug oligo-dT primers and 25 ng/ml of random primers (Invitrogen), 1.0 mM dNTPs (Invitrogen), and 200 U M-MLV reverse transcriptase (Promega); after this the mixture was retrotranscribed at 37° C. for 60 min, followed by an incubation at 95° C. for 5 min to inactivate the enzyme. For the real time PCR amplification (Stratagene Thermal Cycler), cDNA samples were diluted 1/5 to 1/10 depending on the target amplification product. Calibration curves were obtained by use of eight successive 1:2 sample dilutions. Amplifications were carried out in a 25 ul final volume (5 ul cDNA sample plus 20 ul of reaction mixture) in the presence of either 3, 4 or 5 mM MgCl2 (depending on the amplified sequence), 0.25 mM dNTPs (Invitrogen), 1.25 U Taq polymerase (Invitrogen), 1 μM of the specific primers according to the target amplification sequence, and 0.025 μl SYBR Green (Roche). […]

ABCA1 [5] = assay: ABCA1 expression in HL-60 cells (real time PCR); type: cell-based, human; details: GW3965 1 uM, 6 h
Protocol: as §2

ABCG1 [6] = assay: ABCG1 expression in HL-60 cells (real time PCR); type: cell-based, human; details: GW3965 1 uM, 6 h
Protocol: as §2

[7] = tested on: fatty acid synthase (FAS or FASN); assay: FASN expression in HepG2 cells (real time PCR); type: cell-based, human; details: GW3965 1 uM, 6 h
Protocol: (§3) The cells were incubated for 6 h in the presence of either Compound I (10 uM), or Compound II (10 uM), or the commercial LXR agonist GW3965 (1 uM), or Vehicle [DMSO, 0.1% (v/v)]). To obtain RNA, at the end of the incubation the cells were collected by centrifugation at 1,000 rpm for 2 min, washed with phosphate buffered saline, and lysed in 300 ul TRIZOL (Invitrogen). RNA samples were suspended in ul of RNAse free water, and their concentration determined (NanoDrop spectrophotometer). The ratio of the absorbance at 260 and 280 nm was used to assess RNA purity of an RNA preparation, with a value of 1.8-2.0 indicating pure RNA. To obtain cDNA, 1 ug of total RNA was denatured by incubating for 5 min at 70° C., before the addition of a mixture containing 0.5 ug oligo-dT primers and 25 ng/ml of random primers (Invitrogen), 1.0 mM dNTPs (Invitrogen), and 200 U M-MLV reverse transcriptase (Promega); after this the mixture was retrotranscribed at 37° C. for 60 min, followed by an incubation at 95° C. for 5 min to inactivate the enzyme. For the real time PCR amplification (Stratagene Thermal Cycler), cDNA samples were diluted 1/5 to 1/10 depending on the target amplification product. Calibration curves were obtained by use of eight successive 1:2 sample dilutions. Amplifications were carried out in a 25 ul final volume (5 ul cDNA sample plus 20 ul of reaction mixture) in the presence of either 3, 4 or 5 mM MgCl2 (depending on the amplified sequence), 0.25 mM dNTPs (Invitrogen), 1.25 U Taq polymerase (Invitrogen), 1 μM of the specific primers according to the target amplification sequence, and 0.025 μl SYBR Green (Roche). Melting curves were used to assess the specificity of the amplification products. […]

SRBEP-1 = SRBEP-1 expression in HepG2 cells (real time PCR); type: cell-based, human; details: GW3965 1 uM, 6 h
Protocol: as §3

ABCG1 [8] = assay: ABCG1 expression in HepG2 cells (real time PCR); type: cell-based, human; details: GW3965 1 uM, 6 h
Protocol: as §3

LXR-alpha [9] = assay: LXR-alpha expression in HepG2 cells (real time PCR); type: cell-based, human; details: GW3965 1 uM, 6 h
Protocol: The cells were incubated for 6 h in the presence of either Compound I (10 uM), or Compound II (10 uM), or the commercial LXR agonist GW3965 (1 uM), or Vehicle [DMSO, 0.1% (v/v)]). To obtain RNA, at the end of the incubation the cells were collected by centrifugation at 1,000 rpm for 2 min, washed with phosphate buffered saline, and lysed in 300 ul TRIZOL (Invitrogen). RNA samples were suspended in ul of RNAse free water, and their concentration determined (NanoDrop spectrophotometer). The ratio of the absorbance at 260 and 280 nm was used to assess RNA purity of an RNA preparation, with a value of 1.8-2.0 indicating pure RNA. To obtain cDNA, 1 ug of total RNA was denatured by incubating for 5 min at 70° C., before the addition of a mixture containing 0.5 ug oligo-dT primers and 25 ng/ml of random primers (Invitrogen), 1.0 mM dNTPs (Invitrogen), and 200 U M-MLV reverse transcriptase (Promega); after this the mixture was retrotranscribed at 37° C. for 60 min, followed by an incubation at 95° C. for 5 min to inactivate the enzyme. For the real time PCR amplification (Stratagene Thermal Cycler), cDNA samples were diluted 1/5 to 1/10 depending on the target amplification product. Calibration curves were obtained by use of eight successive 1:2 sample dilutions. […]

Which results are given for O=C(O)Cc1cccc(OCCCN(Cc2cccc(C(F)(F)F)c2Cl)CC(c2ccccc2)c2ccccc2)c1 [GW3965, reference compound]?
LXR-alpha driven gene expression, increase compared with vehicle-treated cells (LXR-alpha [1]): 3 fold; TNF-alpha expression versus Comp I-treated cells (TNF-alpha; 24 h after UV): significantly higher; TNF-alpha expression versus DMSO-treated cells (TNF-alpha; 24 h after UV (254 nm, 15 J/m^2), normalized to GAPDH): significantly lower; IL-8 expression versus DMSO-treated cells (IL-8): significantly lower; induction of ABCA1 expression versus Comp I- or Comp II-treated cells (ABCA1 [2]; HaCaT, 24 h after UV exposure): stronger; induction of ABCA1 expression versus Comp I- or Comp II-treated cells (ABCA1 [2]; non-irradiated HaCaT): stronger; LXR-alpha expression (LXR-alpha [3]): higher in HaCaT incubated in the presence of DMSO compared with non-irradiated cells and GW3965-treated cells; FAS expression higher than in vehicle-treated controls [4]: 1.8 times; ABCA1 expression higher than in vehicle-treated controls (ABCA1 [5]): ~3 times; ABCG1 expression higher than in vehicle-treated controls (ABCG1 [6]): ~10 times; FASN expression higher than in vehicle (DMSO) treated controls [7]: 3.7 times; SRBEP-1 expression higher than in vehicle (DMSO) treated controls (SRBEP-1): 4.6 times; ABCG1 expression higher than in vehicle (DMSO) treated controls (ABCG1 [8]): 60 times; induction of LXR-alpha expression compared with DMSO treated HepG2 (LXR-alpha [9]): 3.5 times
